This assay concerns the target T1, CK2α (Homo sapiens, UniProt P68400).
T1 construct: gene CSNK2A1; human recombinant CK2α; rhCK2αΔC(1-335)
T1 sequence (P68400 1-335): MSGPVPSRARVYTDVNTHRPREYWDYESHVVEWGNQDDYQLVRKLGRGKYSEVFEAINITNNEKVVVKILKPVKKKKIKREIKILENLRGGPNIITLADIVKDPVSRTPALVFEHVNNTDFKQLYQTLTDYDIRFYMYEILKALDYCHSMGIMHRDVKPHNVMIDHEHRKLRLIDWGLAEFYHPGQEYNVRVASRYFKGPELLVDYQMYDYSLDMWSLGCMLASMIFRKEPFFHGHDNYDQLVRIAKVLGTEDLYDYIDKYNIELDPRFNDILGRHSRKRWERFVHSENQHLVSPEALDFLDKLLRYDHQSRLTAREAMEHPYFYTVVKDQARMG
The assay is described as follows: radiometric kinase assay dose-response, Lineweaver-Burk kinetics, mutant panel. The assay is classed as biochemical.

pIC50: −log10 of the molar value.

As a reminder, the pIC50 is the negative decadic logarithm of the IC50, by convention in mol/L.

In turn, `O=[N+]([O-])c1ccc2c(N=Nc3ccc4ccccc4c3O)c(O)cc(S(=O)(=O)O)c2c1` [compound 4, Eriochrome Black T] gave a pIC50 of approximately 6.40.

The values are drawn from article PMC3282105, “Antitumoral activity of allosteric inhibitors of protein kinase CK2” (2011).
